Results published in patent US20200085839A1, “COMBINATION OF IMMUNOTHERAPEUTICS AND BISFLUOROALKYL-1,4-BENZODIAZEPINONE COMPOUNDS FOR TREATING LYMPHOMAS” (Ayala Pharmaceuticals Inc., priority 2018, published 2020).

Test system: U266 cells (MM cell line)
Assay: Cell-bound BCMA by flow cytometry
Format: cell-based, human
Details: 24 h, FIG. 1
Protocol: FIG. 1. Levels of cell-bound BCMA en multiple myelma (MM) cells Incubated with γ-secretase inhibitors (GSIs). U266 cells (MM cell line) were incubated with 0.3 nM, 0.5 nM, 1 nM or 3 nM of GSI (Compound 1, Compound 22, LY3039478 or PF3084014) for 24 hours, and BCMA levels were measured by flow cytometry.
For detecting levels of soluble and cell-bound BCMA, U266 cells (MM cell line) were seeded at 1×10^5 cells/well in a total volume of 250 μl into a 96-well plate. The cells were cultured in RPMI medium supplemented with 10% FCS. GSIs (Compound 1, Compound 22, LY3039478 (Lilly), and PF3084014 (Pfizer)) were added to U266 cell cultures at a concentration of 0.3 nM, 0.5 nM, 1 nM and 3 nM for soluble BCMA and at a concentration of […]. Following 24 hours of incubation at 37° C., the cells were collected, and BCMA levels were evaluated in both the cells (cell-bound BCMA) and the cell media (soluble BCMA). Cells were stained with an anti-BCMA antibody (PE anti-human CD269 BCMA, Biolegend). Soluble BCMA levels were analyzed by ELISA (Human BCMA/TNFRSF17 DuoSet kit: R&D Systems).

Row | SMILES | cell-bound BCMA levels
1 | C[C@H](NC(=O)CCC(F)(F)F)C(=O)N[C@@H]1C(=O)N(CCO)c2ncccc2-c2ccccc21 [LY3039478, reference compound] | increased cell-bound BCMA levels
2 | CCC[C@H](N[C@H]1CCc2cc(F)cc(F)c2C1)C(=O)Nc1cn(C(C)(C)CNCC(C)(C)C)cn1 [PF3084014, reference compound] | increased cell-bound BCMA levels
